The values that follow come from patent publication US5525627A, “Esters of acyl carnitines with long-chain aliphatic alcohols and pharmaceutical compositions containing same having antimycotic activity” (Sigma-Tau Industrie Farmaceutiche Riunite S.p.A., priority 1992, dated 1996).

“And” between values parts separate entries of the source, which are not always exact repeats. Identical values can stand only once.

A short description of series [1]: Assessment of behaviour and mortality in mice (Irwin's method). Also noted: species or system mice (male Crl:(CD-1)(ICR)BR). The note with it: mouse, in vivo; oral, dose 1000 (unit inferred), 4 animals/dose. How it is done: (§1) ASSESSMENT OF BEHAVIOUR AND MORTALITY IN MICE
(§2) The assessment of normal behaviour in mice was carried out following S. Irwin's method (Psychopharmacologia, 13, 222 [1968]). This method allows alterations in some behavioural, neurophysiologic and neurovegetative parameters to be detected, which are directly observable by the researcher. The study was conducted using male Crl:(CD-1)(ICR)BR mice (Charles River-Italy) weighing 22-25 g. following oral administration of the compounds suspended in carboxymethylcellulose (0.5% by weight in H2 O) to groups of 4 animals/dose.
(§3) The animals were continously kept under observation for five hours following treatment and twice a day in the subsequent five days. Mortality was also observed during the overall test period.

A further series relates to mice. The description is as above. Further details: species or system mice (male Crl:(CD-1)(ICR)BR). The following applies: mouse, in vivo, po. Here is the method:
as §1, §2, §3

The next series concerns C. albicans ISS 1. Briefly: Experimental subcutaneous infection with Candida albicans in mice. The class given is in vivo, Candida albicans in mice (male CD1 outbred). Here is the method: Male CD1 outbred mice (IFFA Credo) aged 8 weeks were used (4 animals per group).
A pathogenic strain of Candida was used, namely C. albicans ISS 1.
The infected animals were treated with ST 722 dissolved in saline, and Miconazole diluted in saline from a stock solution containing 1% Dimethyl Formamide.
From an overnight broth culture of C. albicans in Sabouraud broth, a fungal suspension was prepared in sterile saline containing 5.0×10^5 cells/mi. An inoculum of 0.5 ml of this suspension was injected subcutaneously into the abdominal wall of each animal.
The compounds were then administered by subcutaneous injection in the same area of the fungal challenge at the dose of 50 mcg (in 0.2 ml of saline) immediately after the inoculum and following 48 and 96 hours (150 total mcg per animal).
Then, 48 hours following the last treatment (6 days after the challenge with Candida), the animals were sacrificed, and the abdominal wall as well as the peritoneum were dissected out.
The excised tissues were then homogenized in 5 ml of sterile saline with a Potter-Elvehjem tissue grinder. The resulting suspensions, appropriately diluted, where plated onto Petri dishes containing a selective agar medium (BIGGY agar), which allows to easily detect the yeast Colony Forming Units (CFU/ml).
The number of colonies scored in a series of dilutions for each single sample consents to calculate the number of yeast cells present in the infected tissue sample as follows: [formula] Where Zi is the number of dilutions performed, Ni is the number of plates prepared for each dilution, and Ci is the total number of yeast cells scored in each dilution.

A short description of series [2]: Test 1: body and lymphoid organ weight in SRBC immunized mice. The format is in vivo, mice (male B6 D2F1). The following applies: 100 mg/kg/day per os, day -2 through day +2; x ± S.E. Here is the method: Test 1: Evaluation of the "in vitro-ex vivo" effect of repeated oral administrations of ST 722 on the primary antibody production (Jerne test) in the spleen of SRBC (Sheep Red Blood Cells) immunized mice.
Male B6 D2F1 mice (C. River) aged 8 weeks (6 animals each group) were utilized.
The substance (ST 722) was administered per os at the dose of 100 mg/kg/day from day -2 through day +2 (immunization at day 0). The animals were immunized by intraperitoneal route with a concentration of 1.0×10^8 cells/mouse in 0.2 ml of sterile saline.
Five days later, spleens to be submitted to teasing process were removed from the animals sacrificed by cervical dislocation. After standardization at 1.0×10^7 cells/ml. the splenocytes (0.1 ml) were mixed with warm agar-Hank's (2 ml) and 10% SRBC in PBS (0.2 ml) and seeded in Petri dishes (samples tested in triplicates) and incubated at 37° C. for 60 min.

In series [3] the test system is Torulopsis candida (D.S.). Briefly: MIC for yeast and yeast-like strains. The format is cell-based. The note with it: Suzukiozyma candida; 48 hours, 35° C.; read-out: Minimal Inhibitory Concentration (MIC). The method, boiled down:
(§4)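 MIC values derive from microdilution testing at a final fungal density near 5.0×10^4 CFU/ml. The medium was Yeast Nitrogen Base supplemented with 0.15% asparagine and 1.0% glucose, buffered with 0.165 M MOPS.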

In series [4] the test system is Cryptococcus neoformans (4711). Nature of the series: MIC for yeast and yeast-like strains. The class given is cell-based. The following applies: 48 hours, 35° C., read-out: Minimal Inhibitory Concentration (MIC). The gist of the method: as §4
Series [5] concerns Trichophyton rubrum (IHEM 4274). Briefly: MIC for dermatophytic fungi. The class given is cell-based. The note with it: 35° C., 96 hours, read-out: Minimal Inhibitory Concentration (MIC). How it is done: (§5) The following strains were used: Trichophyton menthagrophytes ATCC 9533, Trichophyton rubrum IHEM 4274, Microsporum canis IHEM 3522, Epydermophyton floccosum IHEM 3495. The tested substances were: ST 722, ST 1033, ST 1037, ST 1050, ST 1051, ST 1052,. ST 1053.
(§6) The assay was performed following the same procedure described for the yeasts, by using 7-day fungi cultures grown at 30° C. in Potato Dextrose agar, and harvested with Sabouraud broth and Tween 80 (0.5%).
(§7) After washing with Yeast Nitrogen Base, supplemented with asparagine and glucose (as carbon source), the fungal suspension was fragmented using a tissue grinder until the largest clumps or aggregates were undetectable within the grinder. This fungal suspension was then appropriately diluted in YNB to yield a concentration of 2.0×10^5 infective particles/ml (small mycelium fragments, micro-and macroaleuriospores).
(§8) Volumes of 100 μl both of the fungal suspensions and substance solutions, two-fold serially diluted in assay medium, were distributed into each well of a microtiter plate (96 wells, round bottom), which was incubated at 35° C. for 96 hours.

Series [6] deals with Epidermophyton floccosum (IHEM 3495). Briefly: MIC for dermatophytic fungi. The format is cell-based. The note with it: 35° C., 96 hours, read-out: Minimal Inhibitory Concentration (MIC). Here is the method:
as §5, §6, §7, §8

Series [7] deals with Microsporum canis (IHEM 3522). Briefly: MIC for dermatophytic fungi. The following applies: 35° C., 96 hours, read-out: Minimal Inhibitory Concentration (MIC). The class given is cell-based. How it is done:
as §5, §6, §7, §8

Series [8] concerns Trichophyton menthagrophites (ATCC 9533). Nature of the series: MIC for dermatophytic fungi. The note with it: ATCC9533, 35° C., 96 hours, read-out: Minimal Inhibitory Concentration (MIC). The class given is cell-based. Here is the method:
as §5, §6, §7, §8

Broadly, the mortality is the share of the test organisms that died. The low end stands for more survivors, the high end for fewer survivors. In the case of `CCCCCCCCCCCOC(=O)C[C@H](C[N+](C)(C)C)OC(=O)CC(C)C` [ST 722, isovaleryl-L-carnitine undecyl ester chloride], the mortality at 120 h in [1] is 0%. For the same compound, the Symptoms result in the series with mice was “salivation, diarrhoea”. Moreover, the CFU/mouse entry in the series with C. albicans ISS 1 (individual samples 1-4, 50 mcg s.c. at 0, 48 and 96 hours (150 total mcg per animal)) is “sterile and 1.36 × 10^2 CFU/mouse”. Further, the “effect on the infection with Candida” value with C. albicans ISS 1 (s.c., 150 total mcg per animal) is “substantially inhibits the infection with Candida”. Also, in the series on C. albicans ISS 1 (s.c., 150 total mcg per animal), the “sterile samples out of 4” value worked out at 3 samples. This compound also had a Body weight in [2] of 25.12 ± 0.77 g. This compound displayed a Spleen weight in [2] of 94.33 ± 4.12 mg. Also, the Thymus weight in [2] is 59.50 ± 3.62 mg. For the same compound, the MIC in [3] is 6.25 µg/mL; in [4], 1.56 µg/mL; in series [5] it was 12.5 µg/mL; in series [6], 50 µg/mL; in [7], 25 µg/mL; in series [8] it was 25 µg/mL.
